The values below are quoted from earlier work in patent publication US20230149510A1, “METHOD FOR ALLEVIATING ARTHRITIS USING EPIDERMAL GROWTH FACTOR” (Lovin BioMed Co., Ltd., priority 2021, published 2023).

For data set [1], the system named is collagen-induced arthritis. To be noted: Swanson C. D. et al. (2012); cited from earlier work.
Another data set relates to OA. The note with it: Sun H. et al. (2018); cited from earlier work.

Consider `C#Cc1cccc(Nc2ncnc3cc(OCCOC)c(OCCOC)cc23)c1` [erlotinib], for which the “effect on collagen-induced arthritis” value in data set [1] is “can alleviate collagen-induced arthritis”.
`COc1cc2ncnc(Nc3ccc(F)c(Cl)c3)c2cc1OCCCN1CCOCC1` [gefitinib]: the “effect on symptoms in mice with OA” value in the data set with OA was “can improve symptoms in mice with OA”.
